Source: PMC6178282, “Comparative cell biological study of in vitro antitumor and antimetastatic activity on melanoma cells of GnRH-III-containing conjugates modified with short-chain fatty acids” (Beilstein Journal of Organic Chemistry, 2018)

Legend:
[1] = system: A2058 cells; test: Inhibition assay for phosphatidylinositol 3-kinase (pretreatment with wortmannin or LY294002, alamarBlue viability); type: cell-based, human; conditions: then compound 10^−5 M for 48 h, from averages of 6 parallels
Experimental: The association of PI3K activation with the antitumor activity of the conjugates was determined by pretreating the cells with PI3K inhibitors (wortmannin – W and LY294002 – LY). The antitumor effect of the conjugates and Dau on the cells pretreated with PI3K inhibitors or with DMSO (solvent of the inhibitors) was assessed by an alamarBlue-assay after 48 h of incubation. The results of the PI3K-assay were given by calculating the inhibition index as the ratio of the viability of the pretreated and control (DMSO-treated) cell populations being incubated with medium or conjugates (10^−5 M). […]
was measured with LS-50B Luminescence Spectrometer (Perkin Elmer Ltd., Buckinghamshire United Kingdom) by using λ = 560 nm for excitation and λ = 590 nm for detection of the emitted light.
Each data represents the mathematical average of six parallels. The decrease in the fluorescence intensity caused by the different treatments was normalized to the identical control and this value was given as ‘Viability’ in percent. […]
A2058 cells were prepared in 96-well plates as it was aforementioned in ‘Cell proliferation and cytotoxicity measurement’ section. […] The number of viable cells was determined by the alamarBlue-assay as it was described in ‘Cell proliferation and cytotoxicity measurement’ chapter. To analyze the effects of inhibitors on the actions of conjugates, the inhibition index was calculated by […]

[2] = system: A2058 cells; test: Cell adhesion measurement, xCELLigence impedimetry; type: cell-based, human; conditions: Delta CI at 3 h normalized to control, three parallels
From the text: The first crucial steps in metastasis cascade are the impaired adhesion contacts and in parallel the increased motility of tumor cells. These two events substantially provide for tumor cells to detach from the primary tumor and migrate to the surrounding tissue. Besides the tumor-selective antiproliferative/cytotoxic activity of the conjugates, they could be also desired to have an ability to interfere with the dissemination of cancer cells by modulating their adhesion and migration. In order to evaluate the conjugates as antimetastatic therapeutics, their effects on melanoma cell adhesion were investigated by the impedance-based xCELLigence System. The cell adhesion modulator effects of compounds were characterized by Delta Cell index values. […]
The effect of Dau-GnRH-III conjugates on cell adhesion of model cell was assessed using the xCELLigence SP System ( ACEA Biosciences, San Diego, CA, USA).
The adhesion assay, analogous to the description in [5], was started with a background measurement as mentioned above in the section “Cell proliferation and cytotoxicity measurement”. […] The adhesion of A2058 cells was monitored every 20 sec for at least 12 h at 10 kHz.
The attachment and spreading of model cell were characterized by a time-course study of the Delta CI values. The Delta CI values were calculated by the integrated software (RTCA 2.0). […]

## COc1cccc2c1C(=O)c1c(O)c3c(c(O)c1C2=O)C[C@@](O)(C(C)=O)C[C@@H]3O[C@H]1C[C@H](N)[C@H](O)[C@H](C)O1 [daunorubicin]
[1]; A2058 cells pretreated 30 min with LY294002 (15 μM)
  inhibition index, LY294002: 100.7 ± 4.0%
[1]; A2058 cells pretreated 30 min with wortmannin (50 nM)
  inhibition index, wortmannin: 121.0 ± 8.1%
[2]; 10^−5 M
  effect on cell adhesion (Delta Cell index): decrease
[2]; tested 10^−8–10^−5 M
  concentrations at which adhesion of A2058 cells was increased (Delta Cell index): 10^−8 to 10^−7 M
